Measured values as given in PMC12703428, “Development of Granzyme A Turn‐ON Fluorescent Activity‐Based Probes” (Chembiochem, 2025).
Square brackets hold non-standard residues; d marks the D form. Ends that are not written are not given here. Oic = O=C(O)[C@@H]1C[C@@H]2CCCC[C@@H]2N1; Tic = O=C(O)[C@@H]1Cc2ccccc2CN1

Target: T1, mouse GzmA (mGzmA) (Mus musculus, UniProt P11032)
T1 construct: CSB-EP010081MO for active, mature form; purchased Cusabio CSB-EP010081MO
T1 sequence (P11032 29-260): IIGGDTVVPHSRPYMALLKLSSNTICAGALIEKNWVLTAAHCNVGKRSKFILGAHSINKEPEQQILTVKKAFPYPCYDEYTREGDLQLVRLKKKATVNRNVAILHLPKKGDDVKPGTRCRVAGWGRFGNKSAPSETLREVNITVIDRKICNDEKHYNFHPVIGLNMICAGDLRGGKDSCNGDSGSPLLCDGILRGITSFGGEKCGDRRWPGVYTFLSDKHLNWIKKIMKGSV
Test: In-gel fluorescence labeling of mGzmA
Assay type: biochemical
Conditions: mGzmA 1 μM, 24 h, 37 °C; for Labeling of mGzmA (in-gel Cy5 fluorescence): probe 200 nM or 1 μM
Protocol: Figure 3 GzmA ABPs covalently and competitively label active human and mouse GzmA. […] Recombinant hGzmA (100 nM) was incubated with varying concentrations of each ABP at 37 °C. B) Competitive labeling of hGzmA. Recombinant hGzmA (100 nM) was preincubated with covalent inhibitors 1 or 2 (5 μM) for 2 h, followed by labeling with ABPs 3 –5 (50 nM) for 2 h at 37 °C. Note: Pro‐form of hGzmA (the first lane) is not effectively stained by SYPRO‐Ruby. C) Structure of qABP 6. D) Quenched natures of 5 and 6. […] F) Labeling of mGzmA (1 μM) with 5 and 6 (1 μM, 24 h, 37 °C). Protein samples were analyzed by SDS‐PAGE and in‐gel fluorescence scanning for Cy5 signal and SYPRO Ruby staining.
Sulfo-Cy5 N N P O 1 µM 100 nM
7 HN NH2 In-gel fluorescence: […]
mGzmA In-gel fluorescence: mGzmA In-gel fluorescence:
Supplementary Figure 1. (A) Chemical structure of qABP 7. (B) Labeling of mGzmA (1 µM, 24 h, 37 °C) and hGzmA (100 nM, 2 h, 37 °C) by 1 µM or 100 nM of 5, 6, and 7, respectively. (C) Labeling of mGzmA (1 µM, 24 h, 37 °C) by 200 nM of 5, 6, and 7. […] Protein samples were analyzed by SDS-PAGE and in-gel fluorescence scanning for Cy5 signal. […]
Briefly, hGzmA (50 nM) was incubated with either inhibitor 1 or 2 (200 nM), and GzmA fluorogenic substrate […] (100 µM) in 50 mM Tris, 150 mM NaCl, 0.01% Triton X-100 (pH 8) for 15 hr at 37 °C. Recorded fluorescence at Ex/Em: 380/460 nm for residual GzmA […]
Cat. No. CRL-2570) and 4T1 (ATCC Cat. No. CRL-2539) cells were cultured in RPMI supplemented with 10% fetal bovine serum (FBS), 1% penicillin/streptomycin (PS), and 2 mM L-glutamine, while HEK293T and MDA-MB-231 cells (ATCC Cat. No. HTB-26) were cultured in DMEM supplemented likewise as described above. […] The supernatant was collected, and protein concentration was measured using a Pierce BCA protein assay. […]
C. In-gel fluorescence imaging […]
Conditions for probe/inhibitor treatment for in-gel fluorescence analysis: Inhibitors and probes were incubated with active (or pro-) GzmA followed by treatment with 4X SDS reducing sample buffer. […]

| Substance | Labeling of mGzmA (in-gel Cy5 fluorescence) | Concentration dependence of labeling of mGzmA (probe 1, 0.5, 0.2 µM, in-gel fluorescence) |
| --- | --- | --- |
| GFFR [compound 7] | lower labeling efficiency for both hGzmA and mGzmA compared with probes 5 and 6 |  |
| [Tic]G[Oic]R [compound 6] | efficiently (and slightly more strongly than 5) labeled | concentration‐dependent labeling of mGzmA |
